# Experimental data published in US20050250752A1, “Cembranoids with chemopreventive activity” (priority 2002, published 2005).
# Legend:
# [1] = test system: papillomas (mouse skin carcinogenesis induced by DMBA/TPA); test: Two-stage mouse skin carcinogenesis model induced by DMBA/TPA; type: in vivo, mouse (female ICR); details: topical 85 nm 1 hour before TPA, ICR mice
# Procedure: In the two-stage mouse skin carcinogenesis model induced by DMBA/TPA, the animals (specific pathogen-free female ICR, 6 weeks old) were divided into 5 groups, 15 mice each. The back of each mouse was shaved with surgical clippers, and the mice were topically treated with DMBA (100 μg, 390 nmol) in acetone (0.1 ml) as an initiation treatment. For the positive control group, 1 week after initiation with DMBA, mice were promoted by the application with TPA (1 μg, 1.7 nmol) in acetone (0.1 ml) twice a week. The other four groups received a topical application of each of the sarcophine semi-synthetic derivatives (85 nm) 1 hour before application of the tumor promoter. The incidence of papillomas was observed weekly for 20 weeks. The percentage of mice bearing papillomas and the average number of papillomas per mouse were recorded.
# Raji cells = test: Viability of treated Raji cells (Trypan Blue staining); type: cell-based
# Procedure: (§1) The inhibition of EBV-EA activation was assayed using Raji cells (virus non-producer type). The indicator cells (Raji, 1×10^6/ml) were incubated at 37° C. for 48 h in 1 ml of medium containing n-butyric acid (4 mmol), TPA(12-O-tetradecanoylphorbol 13-acetate)(32 pmol=20 ng in 2 μl DMSO) as inducer and various amounts of test compounds in 5 μl DMSO. Smears were made from the cell suspension, and the activated cells, which were stained by EBV-EA positive serum from nasopharygeal carcinoma patients were detected by an indirect immunofluorescence technique. For each compound, assays were performed in triplicate. The average EBV-EA induction of the test compounds was expressed as a relative ratio to the control experiment (100%), which was carried out only with n-butyric acid plus TPA. The viability of treated Raji cells was assayed by the Trypan Blue staining method.
# [2] = test system: Epstein-Barr virus early antigen (EBV-EA) of Raji cells induced by tumor promoter (TPA); test: Inhibition of EBV-EA activation induced by TPA in Raji cells; type: cell-based; details: TPA 32 pmol, Raji cells, 48 h
# Procedure: as §1
# [3] = x 1000 mol ratio/TPA (32 nmol/mL)
smiles,measurement,setting,value
"CC1=CC=C([C@@](C)(O)CO)C[C@H](O)C(C)=CCCC2(C)OC2CC1 (stereo partly drawn) [Compound 12, 7,8-Epoxy-1,3,11-cembratriene-13S(β),15R(α),16-triol]",Papilloma Bearer (%),[1]; week 1 of promotion,0.0%
same,Papillomas/mouse,[1]; week 1 of promotion,0.0
same,Papilloma Bearer (%),[1]; week 2 of promotion,0.0%
same,Papillomas/mouse,[1]; week 2 of promotion,0.0
same,Papilloma Bearer (%),[1]; week 3 of promotion,0.0%
same,Papillomas/mouse,[1]; week 3 of promotion,0.0
same,Papilloma Bearer (%),[1]; week 4 of promotion,0.0%
same,Papillomas/mouse,[1]; week 4 of promotion,0.0
same,Papilloma Bearer (%),[1]; week 5 of promotion,0.0%
same,Papillomas/mouse,[1]; week 5 of promotion,0.0
same,Papilloma Bearer (%),[1]; week 6 of promotion,0.0%
same,Papillomas/mouse,[1]; week 6 of promotion,0.0
same,Papilloma Bearer (%),[1]; week 7 of promotion,0.0%
same,Papillomas/mouse,[1]; week 7 of promotion,0.0
same,Papilloma Bearer (%),[1]; week 8 of promotion,13.3%
same,Papillomas/mouse,[1]; week 8 of promotion,0.2
same,Papilloma Bearer (%),[1]; week 9 of promotion,20.0%
same,Papillomas/mouse,[1]; week 9 of promotion,0.5
same,Papilloma Bearer (%),[1]; week 10 of promotion,26.6%
same,Papillomas/mouse,[1]; week 10 of promotion,1.1
same,Papilloma Bearer (%),[1]; week 11 of promotion,33.3%
same,Papillomas/mouse,[1]; week 11 of promotion,1.5
same,Papilloma Bearer (%),[1]; week 12 of promotion,33.3%
same,Papillomas/mouse,[1]; week 12 of promotion,2.0
same,Papilloma Bearer (%),[1]; week 13 of promotion,40.0%
same,Papillomas/mouse,[1]; week 13 of promotion,2.2
same,Papilloma Bearer (%),[1]; week 14 of promotion,46.6%
same,Papillomas/mouse,[1]; week 14 of promotion,2.7
same,Papilloma Bearer (%),[1]; week 15 of promotion,53.3%
same,Papillomas/mouse,[1]; week 15 of promotion,3.1
same,Papilloma Bearer (%),[1]; week 16 of promotion,60.0%
same,Papillomas/mouse,[1]; week 16 of promotion,3.7
same,Papilloma Bearer (%),[1]; week 17 of promotion,66.6%
same,Papillomas/mouse,[1]; week 17 of promotion,4.0
same,Papilloma Bearer (%),[1]; week 18 of promotion,73.3%
same,Papillomas/mouse,[1]; week 18 of promotion,4.1
same,Papilloma Bearer (%),[1]; week 19 of promotion,73.3%
same,Papillomas/mouse,[1]; week 19 of promotion,4.4
same,Papilloma Bearer (%),[1]; week 20 of promotion,80.0%
same,Papillomas/mouse,[1]; week 20 of promotion,4.6
same,viability percentage of Raji cells (indicator cells),Raji cells; x 10 mol ratio/TPA,> 80%
same,viability percentage of Raji cells (indicator cells),Raji cells; x 100 mol ratio/TPA,> 80%
same,viability percentage of Raji cells (indicator cells),Raji cells; x 500 mol ratio/TPA,> 80%
same,viability percentage of Raji cells (indicator cells),Raji cells; [3],60%
same,"EBV-EA induction, percentage relative to the positive control value (100%)",[2]; x 10 mol ratio/TPA,93.8%
same,"EBV-EA induction, percentage relative to the positive control value (100%)",[2]; x 100 mol ratio/TPA,74.6%
same,"EBV-EA induction, percentage relative to the positive control value (100%)",[2]; x 500 mol ratio/TPA,55.8%
same,"EBV-EA induction, percentage relative to the positive control value (100%)",[2]; [3],5.9%
